Results on one compound are retold here after US20230109839A1, “THERAPEUTIC AGENT FOR TAUOPATHIES” (SUMITOMO PHARMA CO., LTD., priority 2020, published 2023).

Common to all, as to assay type: in vivo, mouse
For experiment [1], the system named is phosphorylated tau oligomer. Briefly: Evaluation of phosphorylated tau oligomers in brain of APP-Tg mice, Western blotting (Test 4). The conditions noted are these: for Reducing effect of phosphorylated tau oligomer: 7-10 days, with ABT 1 mg/g-food. The method, then: Test 4: Evaluation of Phosphorylated Tau Oligomers Using APP-Tg Mice
This test is a test to quantify the oligomer of phosphorylated tau in the brain to evaluate the action of a compound. […] The APP-Tg mice used herein were prepared by the method described in Test 3.
The test compound administered with food to APP-Tg mice for 7-10 days. At this time, in order to increase the blood concentration of the test compound, ABT was used in combination with a mixed diet of 1 mg/g-food depending on the compound. After the administration, the brain was collected, and the protein is extracted from the collected brain using TBS (Tris Buffered Saline) or sarcosyl, and then SDS-PAGE (sodium dodecyl sulfate-polyacrylamide gel electrophoresis) of the soluble or insoluble fraction was performed. After that, Western blotting was performed using an anti-oligomerized tau antibody (Anti-Tau, oligomeric, clone TOMA-1), and the effect of the test compound was evaluated by quantifying the band amount of the phosphorylated tau oligomer.
The reducing effect of phosphorylated tau oligomer was calculated by the following formula, and from the calculated values, the results were defined as follows: 0-25%: +, 25-50%: ++, 50-75%: +++, and 75-100%: ++++. The significant difference from the vehicle-administered group was determined using the Student t-test. For the band amount, the value corrected by the β-actin band amount was used.
Reducing effect of phosphorylated tau oligomer={(band amount of oligomerized tau in vehicle-administered group−band amount of oligomerized tau in test compound-administered group)/band amount of oligomerized tau in vehicle-administered group}×100
(In general: In western blotting, separated proteins are transferred to a membrane and probed.)

In experiment [2] the test system is intracerebral tau aggregate accumulation. The experiment can be described thus: Intracerebral tau aggregate accumulation in rTg4510 mice, tau PET with [18F] PM-PBB3, SUVR (Test 5). The note with it: for SUVR(cerebellum ratio) cerebral neocortex / SUVR(cerebellum ratio) hippocampus: 4.5 mg/g-food, with ABT 1 mg/g-food. The source says:
(§1) Test 5: Evaluation of Intracerebral Tau Aggregate Accumulation and Cerebral Atrophy Using rTg4510 Mice
(§2) This test is a test to evaluate the effects of the compounds on intracerebral tau aggregate accumulation and cerebral atrophy. The rTg4510 mice overexpress the human-type FTDP-17 mutant tau in the forebrain, and month-age-dependent intracerebral tau aggregate accumulation and cerebral atrophy are observed. The rTg4510 mice used herein were produced by mating Tg (tauP301L) 4510 mice (Stock No. 015815) and CaMKII-tTA mice (Stock No. 007004) purchased from The Jackson Laboratory and breeding them.
(§3) The test compound was administered as a mixed diet to rTg4510 mice from the age of 4 months, and PET scan and MRI were performed at the ages of 4, 6 and 8 months to quantitatively evaluate the amount of the intracerebral tau aggregate accumulated and cerebral atrophy. The PET scan was performed using MicroPET Focus 220 of Siemens Medical Solutions (0.851 mm thick (intercenter) 95 slices, 19.0 cm axial field of view (FOV), and 7.6 cm intra-section FOV). The administration of radioactive compound [^18F] PM-PBB3 (precursor obtained from Aprinoia) and the PET scan were performed in dimly lit after the mice was treated with 1.5% isoflurane anesthesia to avoid […] of the radioactive compound. The emission scan was performed for 60 minutes immediately after the intravenous administration of [^18F] PM-PBB3 (1 mCi) (3D list mode, energy window: 350-750 keV). Then, the list mode data sorted into 3D synograms were converted into 2D synograms by Fourier-rebinding (frames: 4×1, 8×2 and 8×5 minutes). The dynamic image for 60 minutes after the administration of [^18F] PM-PBB3 was reconstructed by a filter-corrected back projection with a 0.5 mm Hanning filter. Regions of interest (ROI) were set in multiple brain regions using PMOD image analysis software (PMOD Technology) with reference to the MRI templates and the PET reconstructed images. Tau aggregate accumulation was evaluated by calculating SUVR (Standardized uptake value ratio) with the cerebellum as a reference region, based on the added average of dynamic images from 40 minutes to 60 minutes.

Experiment [3] has as its system rTg4510 mice. Briefly: Cerebral atrophy in rTg4510 mice, MRI volume of brain regions (Test 5). The conditions noted are these: for lateral ventricular volume (mm^3): 4.5 mg/g-food, with ABT 1 mg/g-food.
From the text: as §1, §2, §3
The evaluation of cerebral atrophy was performed with horizontal superconducting magnet type MRI (7T, inner diameter 400 mm, self-shielding type, zero boil-off type). The imaging was performed under isoflurane anesthesia while maintaining the rectal temperature at 36.5±0.5° C. After Tripilot acquisition, the brain images were acquired by TurboRARE T2 emphasis sequence (TR: 4200 ms, TE: 36 ms, Fat-Sup: on, NA: 4, RARE factor: 8, scan time: 14 min) (FOV read: 25.6 mm, FOV P1: 14.5 mm, Slice thickness: 0.5 mm, number of slices: 28). The ROI of each brain region was set in each of the acquired slices, and the volume of the brain region was calculated by summing the ROI areas of all the slices to evaluate the effect of the test compound.

The mark [4] stands for this setting: mixed diet 4.5 mg/g-food with ABT 1 mg/g-food.

Entries after “also recorded” stand apart in the source; their conditions may differ.

As to `N#Cc1ccc(NC(=O)Cn2nc(N3CCC4(CC4)C(F)(F)C3)ccc2=O)cn1` [Example 560, N-(6-cyanopyridin-3-yl)-2-[3-(4,4-difluoro-6-azaspiro[2.5]octan-6-yl)-6-oxopyridazin-1(6H)-yl]acetamide], the “Reducing effect of phosphorylated tau oligomer” value in experiment [1] (dose 0.5 mg/g-food) is “++ (25-50%: ++)”; in experiment [1] (dose 4.5 mg/g-food), “++++ (75-100%: ++++)”. For the same compound, in experiment [1] (with food for 7-10 days, ABT 1 mg/g-food depending on the compound, brain, anti-oligomerized tau antibody TOMA-1), the “reducing effect of tau oligomer” value was “some reducing effect of tau oligomer; also recorded: strong reducing effect of tau oligomer”. The results for the “SUVR(cerebellum ratio) cerebral neocortex” value in experiment [2] (4 month old), in experiment [2] (6 month old) and in experiment [2] (8 month old) were 1.026 ± 0.037, 1.224 ± 0.060 and 1.351 ± 0.049, respectively. The results for the “SUVR(cerebellum ratio) hippocampus” value in experiment [2] (4 month old), in experiment [2] (6 month old) and in experiment [2] (8 month old) were 1.103 ± 0.036, 1.328 ± 0.078 and 1.468 ± 0.056, respectively. The “age-dependent increase in SUVR in the cerebral neocortex and hippocampus (FIG. 7)” value in experiment [2] (setting [4]) is “tended to be suppressed”. The “increase in PET tracer accumulation in each brain region with aging (average SUVR images, FIG. 6)” value in experiment [2] (mixed diet 4.5 mg/g-food with ABT 1 mg/g-food, ages 4, 6 and 8 months) is reported as “suppressed”. Moreover, the “lateral ventricular volume (mm^3)” value is 0.47 ± 0.06 mm^3 in experiment [3] (4 month old), 0.34 ± 0.10 mm^3 in experiment [3] (6 month old) and 0.71 ± 0.35 mm^3 in experiment [3] (8 month old). Moreover, the “age-dependent increase in lateral ventricular volume” value in experiment [3] (setting [4]) is “suppressed”.
